In patent publication US20060148020A1, “Inhibitors of gst a3-3 and gst a1-1 for the treatment of cancer” (priority 2002, published 2006):
Like-named read-outs stand apart in the source and are kept apart here.

Key:
GST A1-1 [1] = biological target: T1, GST A1-1 (Homo sapiens, UniProt P08263); details: read-out: IC50 Values GST A1-1
T1 sequence (P08263 1-222): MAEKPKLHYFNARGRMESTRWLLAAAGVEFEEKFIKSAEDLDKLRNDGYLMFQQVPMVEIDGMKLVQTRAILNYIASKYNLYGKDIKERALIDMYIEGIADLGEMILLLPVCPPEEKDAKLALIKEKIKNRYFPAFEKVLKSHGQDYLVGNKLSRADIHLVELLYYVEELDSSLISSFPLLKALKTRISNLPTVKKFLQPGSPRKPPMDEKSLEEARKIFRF

GST A2-2 [2] = biological target: T2, GST A2-2 (Homo sapiens, UniProt P09210); details: read-out: IC50 Values GST A2-2
T2 sequence (P09210 1-222): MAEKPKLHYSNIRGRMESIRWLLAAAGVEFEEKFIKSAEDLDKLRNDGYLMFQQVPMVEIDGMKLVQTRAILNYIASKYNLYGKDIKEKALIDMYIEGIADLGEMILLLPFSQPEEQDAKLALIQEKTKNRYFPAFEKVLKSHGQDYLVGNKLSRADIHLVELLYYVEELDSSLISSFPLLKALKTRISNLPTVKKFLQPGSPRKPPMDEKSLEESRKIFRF

GST A3-3 [3] = biological target: T3, GST A3-3 (Homo sapiens, UniProt Q16772); details: read-out: IC50 Values GST A3-3
T3 sequence (Q16772 1-222): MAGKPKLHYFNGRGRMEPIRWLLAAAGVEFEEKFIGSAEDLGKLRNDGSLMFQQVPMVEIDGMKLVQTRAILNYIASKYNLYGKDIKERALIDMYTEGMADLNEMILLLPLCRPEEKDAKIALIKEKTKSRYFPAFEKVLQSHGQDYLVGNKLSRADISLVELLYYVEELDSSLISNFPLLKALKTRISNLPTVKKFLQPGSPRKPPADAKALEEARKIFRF

GST A1-1 [4] = biological target: T1, GST A1-1; assay: biochemical
GST A2-2 [5] = biological target: T2, GST A2-2; assay: biochemical
GST A3-3 [6] = biological target: T3, GST A3-3; assay: biochemical

SMILES	IC50 (GST A1-1 [1])	IC50 (GST A2-2 [2])	IC50 (GST A3-3 [3])	IC50 (GST A1-1 [4])	IC50 (GST A2-2 [5])	IC50 (GST A3-3 [6])
CCC[CH2][Sn]([CH2]CCC)([CH2]CCC)[O]C(C)=O [Bu3SnAc]	18 nM	410 nM	18 nM			
C[CH2][Ge]([Cl])([CH2]C)[CH2]C [Et3GeCl]				56000 nM	800 nM	67000 nM
C[CH2][Pb]([Cl])([CH2]C)[CH2]C [Et3PbCl]				2000 nM		2300 nM
[Br][Pb]([c]1ccccc1)([c]1ccccc1)[c]1ccccc1 [Ph3PbBr]				8.6 nM		160 nM
[Cl][Pb]([c]1ccccc1)([c]1ccccc1)[c]1ccccc1 [Ph3PbCl]				4.6 nM	84 nM	13 nM
CC(=O)[O][Sn]([c]1ccccc1)([c]1ccccc1)[c]1ccccc1 [Ph3SnAc]	160 nM		160 nM			
